A value given as a limit tells only on which side of the number the result lay.

For data set [1], the system named is GT1a (H77) HCV replicon. Nature of the data set: HCV replicon assay, wild type GT1a (H77), luciferase based, stable format. The data set is classed as cell-based, hepatitis C virus. The settings on record: Hepatitis C virus, GT1A, Huh-7, 72 h, Huh-7 cells. Here is the method: (§1) The antiviral activity of the test compounds was assessed in the wild type GT1b (Con1), GT1a (H77), and GT1b/2a, GT1b/3a, GT1b/4a and GT1b/5a NS5B chimeric replicons, as well as the NS5B mutant replicons listed in Table 2a and 2b.
(§2) All the replicon assays were luciferase based in Huh-7 cells, either in stable format (GT1b and GT1a) or by transient transfection by electroporation (chimeric and mutant replicons). For a standard HCV replicon assay, stable or transiently transfected Huh-7 cells were seeded in 96-well plates (5,000 cells/well), cultured in DMEM containing 10% FBS, and incubated at 37° C., 5% CO2. On the following day, test compounds were diluted with assay media and added to the appropriate wells (final DMSO concentration in the cell culture medium was 0.5%). Assay reference positive control was included in each run to ensure assay performance. Cells were incubated at 37° C., 5% CO2 for 72 hours, at which time the cells were still sub-confluent. The antiviral activity was determined by measuring replicon reporter firefly luciferase activity using Bright Glo kit in accordance with the protocol provided by the supplier (Promega). The toxicity of the test compounds was assessed by CytoTox-1 cell proliferation assay (Promega). The half maximal effective concentration (EC50) and the half maximal toxic concentration (TC50) values were calculated using the GraphPad Prism software.

Data set [2] relates to GT1b/4a NS5B chimeric replicon. Nature of the data set: HCV replicon assay, GT1b/4a NS5B chimeric replicon, transient transfection. In kind it is cell-based, hepatitis C virus. The conditions noted are these: Hepatitis C virus, Huh-7, 72 h, read-out: GT4a EC50, GT1b/4a NS5B chimeric replicon, Huh-7 cells, luciferase, 72 hours. Here is the method:
as §1
(§3) To generate HCV NS5B chimeric replicons, the GT1 b replicon was used as a backbone with the NS5B gene replaced with the NS5B gene of GT2a, GT3a, GT4a and GT5a derived from clinical isolates. These NS5B genes were cloned into the GT1b backbone and were confirmed by sequencing.
as §2

The test system of data set [3] is Huh-7 cells. The data set can be described thus: Toxicity by CytoTox-1 cell proliferation assay (TC50) and selectivity index. In kind it is cell-based. The conditions noted are these: TC50 by CytoTox-1 cell proliferation assay over replicon EC50, Huh-7 cells. The protocol:
as §2
(In antiviral work, replicon cells carry a viral genome segment that copies itself.)

The subject of data set [4] is GT1a S282T NS5B mutant replicon. Nature of the data set: HCV NS5B mutant replicon assay, GT1a S282T. The data set is classed as cell-based. The settings on record: Hepatitis C virus, Huh-7, 72 h, read-out: GT1a S282T EC50. Here is the method: as §1
(§4) The HCV replicon mutants were generated by site-directed mutagenesis (SDM). The SDM was performed by PCR and the PCR fragments were inserted into the backbone replicon construct. The inserted PCR fragments and the mutants were confirmed by sequencing.
as §2

The subject of data set [5] is GT1a L159F NS5B mutant replicon. Nature of the data set: HCV NS5B mutant replicon assay, GT1a L159F. The conditions noted are these: Hepatitis C virus, Huh-7, 72 h, read-out: GT1a L159F EC50. The data set is classed as cell-based. The protocol:
as §1, §4, §2

The test system of data set [6] is GT1b L159F NS5B mutant replicon. Nature of the data set: HCV NS5B mutant replicon assay, GT1b L159F. In kind it is cell-based. The conditions noted are these: Hepatitis C virus, Huh-7, 72 h, read-out: GT1b L159F EC50. Here is the method:
as §1, §4, §2

The subject of data set [7] is GT3a L159F NS5B mutant replicon. The data set can be described thus: HCV NS5B mutant replicon assay, GT3a L159F. In kind it is cell-based. The conditions noted are these: Hepatitis C virus, Huh-7, 72 h, read-out: GT3a L159F EC50. Here is the method:
as §1, §3, §4, §2

Data set [8] can be described thus: Nucleoside phosphoester stability in fetal bovine serum. In kind it is in vitro ADME. The conditions noted are these: 100 μM, 37° C. Here is the method:
In another test, mononucleotide stock solutions were prepared at 10 mM in DMSO, and 10 μL of each stock solution was added to 1 mL of fetal bovine serum (FBS) to provide 100 μM of final compound concentration. These samples incubated for 24 h in a 37° C. water bath and 100 μL aliquots removed at t=0, 1, 2, 4, 6 and 24 hours. Individual samples were precipitated with 200 μL cold acetonitrile, the debris was pelleted at 14K RPM for 30 min at 4° C., and the supernatant was removed and subjected to LCMS analysis as described below.
Mobile phase A: 95:5 H2O:acetonitrile, 10 mM ammonium acetate, 0.01% formic acid
Mobile phase B: 95:5 acetonitrile:H2O, 10 mM ammonium acetate, 0.01% formic acid
Extracted ion chromatograms generated using M+1H and ammonium adduct for each compound.

For the compound `CC(C)(C)SSc1ccccc1CCOP1(=O)OC[C@H]2O[C@@H](n3ccc(=O)[nH]c3=O)[C@](C)(F)[C@@H]2O1` (single isomer, unassigned) [Compound 7A], the EC50 is 5 to 8 nM in data set [1]; 5 nM in data set [2]; 60 nM in data set [4]; 11 nM in data set [5]; 15 to 17 nM in data set [6]; 15 nM in data set [7]. Besides, the “Selectivity Index (TC50/EC50)” value in data set [3] is more than 500. In addition, the “% t = 0” value was 100.0% in data set [8] (0 hours); 101.0% in data set [8] (1 hour); 101.0% in data set [8] (2 hours); 100.9% in data set [8] (4 hours); 92.5% in data set [8] (6 hours); 87.9% in data set [8] (24 hours).

`CC(C)OC(=O)[C@H](C)N[P@](=O)(OC[C@H]1O[C@@H](n2ccc(=O)[nH]c2=O)[C@](C)(F)[C@@H]1O)Oc1ccccc1` [sofosbuvir, reference compound]: the EC50 in data set [1] was 40 to 61 nM; in data set [2], 54 nM; in data set [4] it was 194 to 694 nM; in data set [5], 80 nM; in data set [6], 63 nM; in data set [7], 134 nM. In addition, the “Selectivity Index (TC50/EC50)” value in data set [3] is given as more than 100. Moreover, the “% t = 0” value turned out to be 100.0% in data set [8] (0 hours); 96.2% in data set [8] (1 hour); 96.5% in data set [8] (2 hours); 89.0% in data set [8] (4 hours); 91.6% in data set [8] (6 hours); 102.2% in data set [8] (24 hours).

Values taken from patent publication US20180346505A1, “MONONUCLEOTIDES HAVING A BIOREVERSIBLE DISULFIDE GROUP” (priority 2014, published 2018).
